“Also recorded” adds a separate entry of the source.
How the values were obtained:
[1] = cited from earlier work; for improvement over baseline versus placebo on the MADRS: endpoint week 8, pramipexole 1.0 mg/day, fluoxetine 20 mg/day
[2] = high doses of pramipexole; cited from earlier work

SMILES	improvement over baseline versus placebo on the MADRS [1]	patients reporting nausea ([1]; pramipexole 5.0 mg/day group)	patients reporting vomiting ([1]; pramipexole 5.0 mg/day group)	patients who discontinued treatment prematurely, mainly because of adverse events ([1]; pramipexole 5.0 mg/day group)	improvement at week 8 (change from baseline) ([1]; pramipexole 5.0 mg/day group, scale not stated, no p value because of high drop-out rate)	subjects reaching first intolerable dose FID-1 (human, in vivo, po)	dose limiting toxicity (pramipexole alone, single oral increasing doses)	activity in animal behavior tests simulating symptoms of depression [2]	effect on dose-limiting gastro-intestinal adverse events of pramipexole (concomitant oral administration of domperidone with high doses of pramipexole)
CCCN[C@H]1CCc2nc(N)sc2C1 [pramipexole, (S)-6-propylamino-4,5,6,7-tetrahydro-1,3-benzothiazole-2-amine]	significantly better improvement over baseline than the placebo group	76%	39%	57.6%	−15.00	All subjects reached FID-1	gastro-intestinal adverse events in all subjects	active	
CNCCC(Oc1ccc(C(F)(F)F)cc1)c1ccccc1 (stereo not shown) [fluoxetine]	significantly better improvement over baseline than the placebo group								
O=c1[nH]c2ccccc2n1CCCN1CCC(n2c(=O)[nH]c3cc(Cl)ccc32)CC1 [domperidone, 5-chloro-1-(1-[3-(2-oxo-2,3-dihydro-1H-benzo[d]imidazol-1-yl)propyl]piperidin-4-yl)-1H-benzo[d]imidazol-2(3H)-one]									prevented the occurrence of dose-limiting gastro-intestinal adverse events; also recorded: attenuated dose-limiting gastro-intestinal adverse effects

Reference: US20220071976A1 (CHASE THERAPEUTICS CORPORATION, priority 2018, published 2022)
